Results: ChEMBL document CHEMBL3120112, “Novel bronchodilatory quinazolines and quinoxalines: synthesis and biological evaluation” (Eur J Med Chem, 2014)
Activity calls are given as the source filed them. No cut-off for these calls is given here.

How the values were obtained:
[1] = Bronchodilatory activity in Wistar rat trachea assessed as inhibition of carbacol-induced contraction; assay type: functional; conditions: read-out: ED50 (the source's name)
[2] = organism: Rattus norvegicus; experiment: Antagonist activity at rat trachea muscarinic acetylcholine receptor assessed as inhibition of carbachol-induced contraction preincubated for 10 mins followed by agonist challenge
[3] = organism: Cavia porcellus; experiment: Agonist activity at guinea pig trachea beta adrenergic receptor assessed as relaxation effect in presence of propranolol
[4] = test system: Mus musculus; experiment: Toxicity in ICR mouse assessed as change in kidney weight at 18 mg/kg, po qd for 7 days measured every day for 7 days (0.248 +/- 0.026 g); assay type: organism-based; parameters: dose 18 mg/kg, route oral; conditions: in vivo, 168 h
[5] = test system: Mus musculus; experiment: Toxicity in ICR mouse assessed as change in testicle weight at 54 mg/kg, po qd for 7 days measured every day for 7 days (0.118 +/- 0.004 g); assay type: organism-based; parameters: dose 54 mg/kg, route oral; conditions: in vivo, 168 h
[6] = test system: Mus musculus; experiment: Toxicity in ICR mouse assessed as change in testicle weight at 36 mg/kg, po qd for 7 days measured every day for 7 days (0.118 +/- 0.004 g); assay type: organism-based; parameters: dose 36 mg/kg, route oral; conditions: in vivo, 168 h
[7] = Acute toxicity in ip dosed ICR mouse; assay type: organism-based; conditions: in vivo
[8] = test system: Mus musculus; experiment: Toxicity in ICR mouse assessed as change in kidney weight at 54 mg/kg, po qd for 7 days measured every day for 7 days (0.248 +/- 0.026 g); assay type: organism-based; parameters: dose 54 mg/kg, route oral; conditions: in vivo, 168 h
[9] = test system: Mus musculus; experiment: Toxicity in ICR mouse assessed as change in testicle weight at 18 mg/kg, po qd for 7 days measured every day for 7 days (0.118 +/- 0.004 g); assay type: organism-based; parameters: dose 18 mg/kg, route oral; conditions: in vivo, 168 h
[10] = test system: Mus musculus; experiment: Toxicity in ICR mouse assessed as change in kidney weight at 36 mg/kg, po qd for 7 days measured every day for 7 days (0.248 +/- 0.026 g); assay type: organism-based; parameters: dose 36 mg/kg, route oral; conditions: in vivo, 168 h
[11] = test system: Mus musculus; experiment: Toxicity in ICR mouse assessed as change in liver weight at 36 mg/kg, po qd for 7 days measured every day for 7 days (1.772 +/- 0.120 g); assay type: organism-based; parameters: dose 36 mg/kg, route oral; conditions: in vivo, 168 h
[12] = test system: Mus musculus; experiment: Toxicity in ICR mouse assessed as change in spleen weight at 18 mg/kg, po qd for 7 days measured every day for 7 days (0.143 +/- 0.033 g); assay type: organism-based; parameters: dose 18 mg/kg, route oral; conditions: in vivo, 168 h
[13] = test system: Mus musculus; experiment: Toxicity in ICR mouse assessed as change in heart weight at 54 mg/kg, po qd for 7 days measured every day for 7 days (0.155 +/- 0.002 g); assay type: organism-based; parameters: dose 54 mg/kg, route oral; conditions: in vivo, 168 h
[14] = test system: Mus musculus; experiment: Toxicity in ICR mouse assessed as change in heart weight at 18 mg/kg, po qd for 7 days measured every day for 7 days (0.155 +/- 0.002 g); assay type: organism-based; parameters: dose 18 mg/kg, route oral; conditions: in vivo, 168 h
[15] = test system: Mus musculus; experiment: Toxicity in ICR mouse assessed as change in spleen weight at 36 mg/kg, po qd for 7 days measured every day for 7 days (0.143 +/- 0.033 g); assay type: organism-based; parameters: dose 36 mg/kg, route oral; conditions: in vivo, 168 h
[16] = test system: Mus musculus; experiment: Toxicity in ICR mouse assessed as change in liver weight at 54 mg/kg, po qd for 7 days measured every day for 7 days (1.772 +/- 0.120 g); assay type: organism-based; parameters: dose 54 mg/kg, route oral; conditions: in vivo, 168 h
[17] = test system: Mus musculus; experiment: Toxicity in ICR mouse assessed as change in spleen weight at 54 mg/kg, po qd for 7 days measured every day for 7 days (0.143 +/- 0.033 g); assay type: organism-based; parameters: dose 54 mg/kg, route oral; conditions: in vivo, 168 h
[18] = test system: Mus musculus; experiment: Toxicity in ICR mouse assessed as change in liver weight at 18 mg/kg, po qd for 7 days measured every day for 7 days (1.772 +/- 0.120 g); assay type: organism-based; parameters: dose 18 mg/kg, route oral; conditions: in vivo, 168 h
[19] = test system: Mus musculus; experiment: Toxicity in ICR mouse assessed as change in heart weight at 36 mg/kg, po qd for 7 days measured every day for 7 days (0.155 +/- 0.002 g); assay type: organism-based; parameters: dose 36 mg/kg, route oral; conditions: in vivo, 168 h
[20] = organism: Rattus norvegicus; conditions: Wistar, Trachea
[21] = test system: Mus musculus; experiment: Toxicity in ICR mouse assessed as change in body weight at 18 to 54 mg/kg, po qd for 7 days measured every day for 7 days; assay type: organism-based; parameters: dose 18-54 mg/kg, route oral; conditions: in vivo, 168 h
[22] = test system: Mus musculus; experiment: Toxicity in ICR mouse assessed as mortality at 18 to 54 mg/kg, po qd for 7 days measured every day for 7 days; assay type: organism-based; parameters: dose 18-54 mg/kg, route oral; conditions: in vivo, 168 h
[23] = Bronchodilatory activity in guinea pig trachea assessed as inhibition of contraction; assay type: functional, tissue-based
[24] = test system: Trachea; experiment: Potency index, ratio of theophylline ED50 to compound ED50 for bronchodilatory activity in Wistar rat trachea; assay type: functional

| Compound | EC50 [1] [µM] | also measured |
| --- | --- | --- |
| O=c1ccncn1CCCN1CCCCC1 | 1120 |  |
| CN1CCCC1CCNc1ncnc2ccccc12 (centres undefined) | 173 |  |
| c1ccc2c(SCCCN3CCCCC3)ncnc2c1 [listing 1 of 2 here] |  | Activity [2]: Active; Activity [3]: Active |
| O=c1ccn(CCCN2CCCCC2)c2ccccc12 | 946 |  |
| O=c1c2ccccc2[n+]([O-])cn1CCCN1CCCCC1 | 45.3 |  |
| CN(C)CCOc1ncnc2ccccc12 | 162 |  |
| c1ccc2c(OCCCN3CCCCC3)ncnc2c1 | 132 |  |
| O=c1ccn(CCCN2CCCCC2)cc1 | 4230 |  |
| CN(C)CCn1cnc2ccccc2c1=O | 440 |  |
| CN1CCCC1CCn1cnc2ccccc2c1=O (centres undefined) | 104 |  |
| CN(C)CCSc1ncnc2ccccc12 | 65.3 |  |
| O=c1c2ccccc2ncn1CCN1CCOCC1 | 1900 |  |
| O=c1c2ccccc2ncn1CCC[N+]1([O-])CCCCC1 | 601 |  |
| CN1CCCC1CCSc1ncnc2ccccc12 (centres undefined) | 76.6 |  |
| O=c1cnc2ccccc2n1CCCN1CCCCC1 | 43 |  |
| O=c1c2ccccc2ncn1CCN1CCCCC1 | 178 |  |

| Compound | EC50 [1] [µM] | also measured |
| --- | --- | --- |
| O=c1c2ccccc2ncn1CCN1CCCC1 | 562 |  |
| Cl.c1ccc2c(SCCCN3CCCCC3)ncnc2c1 |  | Activity [4]: 0.24 g; Activity [5]: 0.115 g; Activity [6]: 0.116 g; LD50 [7]: 89.1 mg/kg; Activity [8]: 0.242 g; Activity [9]: 0.122 g; Activity [10]: 0.238 g; Activity [11]: 1.679 g; Activity [12]: 0.134 g; Activity [13]: 0.144 g; Activity [14]: 0.146 g; Activity [15]: 0.147 g; Activity [16]: 1.64 g; Activity [17]: 0.131 g; Activity [18]: 1.762 g; Activity [19]: 0.154 g |
| Cl.c1ccc2nc(SCCCN3CCCCC3)cnc2c1 | 3.26 | Activity [2]: Active; Activity [3]: Active; LD50 [7]: 104 mg/kg |
| Cn1c(=O)c2nc[nH]c2n(C)c1=O [THEOPHYLLINE] | 2090 |  |
| c1ccc2c(SCCCN3CCCCC3)ccnc2c1 | 58.7 |  |
| c1ccc2c(OCCN3CCCCC3)ncnc2c1 | 301 |  |
| c1ccc2c(NCCN3CCCCC3)ncnc2c1 | 191 |  |
| O=c1[nH]cnc2ccccc12 [QUINAZOLINONE] | 810 |  |
| Cl.O=c1c2ccccc2ncn1CCCN1CCCCC1 |  | LD50 [7]: 162 mg/kg |
| O=C(O)Cn1cnc2ccccc2c1=O |  | ED50 [20]: inactive |
| c1ccc2c(NCCN3CCOCC3)ncnc2c1 | 258 |  |
| c1ccc2c(SCCCN3CCCCC3)ncnc2c1 [listing 2 of 2 here] | 3.42 | Activity [21]: Non-toxic; Activity [22]: Non-toxic |
| COc1cc2nc3n(c(=O)c2cc1OC)CCCCC3 |  | EC50 [23]: 73 µM |
| O=c1c2ccccc2nc2n1CC[C@@H]2O | 2860 |  |
| Cn1cnc2ccccc2c1=O | 747 |  |
| O=c1c2ccccc2ncn1CCCN1CCCCC1 | 28.3 | Ratio ED50 [24]: 100 |
